From patent US20240174633A1, “CRYSTALLINE FORMS OF (4S)-24-CHLORO-4-ETHYL-73-FLUORO-35-METHOXY-32,5-DIOXO-14-(TRIFLUORO-METHYL)-32H-6-AZA-3(4,1)-PYRIDINA-1(1)-[1,2,3]TRIAZOLA-2(1,2),7(1)-DIBENZENAHEPTAPHANE-74-CARBOXAMIDE” (Bayer Aktiengesellschaft, priority 2021, published 2024) come the findings set out here.

One experiment concerns the target human factor XIa (Homo sapiens (Human), UniProt P03951). The experiment in a line: Measurement of FXIa inhibition (fluorogenic peptide substrate). It is filed as biochemical. As to conditions: substrate Boc-Glu(OBzl)-Ala-Arg-AMC. The protocol: The factor XIa inhibition of the substances according to the invention is determined using a biochemical test system which utilizes the reaction of a peptidic factor XIa substrate to determine the enzymatic activity of human factor XIa. Here, factor XIa cleaves from the peptidic factor XIa substrate the C-terminal aminomethylcoumarin (AMC), the fluorescence of which is measured. The determinations are carried out in microtitre plates.
(§1) Test substances are dissolved in dimethyl sulfoxide and serially diluted in dimethyl sulfoxide (3000 μM to 0.0078 μM; resulting final concentrations in the test: 50 µM to 0.00013 μM). In each case 1 μl of the diluted substance solutions is placed into the wells of white microtitre plates from Greiner (384 wells). […] After 15 min of incubation, the enzyme reaction is started by addition of 20 μl of the factor XIa substrate Boc-Glu(OBzl)-Ala-Arg-AMC dissolved in assay buffer (10 μM in assay buffer) from Bachem, the mixture is incubated at room temperature (22° C.) for 30 min and fluorescence is then measured (excitation: 360 nm, emission: 460 nm). The measured emissions of the test batches with test substance are compared to those of control batches without test substance (only dimethyl sulfoxide instead of test substance in dimethyl sulfoxide), and IC50 values are calculated from the concentration/activity relationships. […]

In another experiment the target is human plasma kallikrein (Homo sapiens (Human), UniProt P03952). Put plainly: Determination of the plasma kallikrein activity (fluorogenic peptide substrate). As to conditions: substrate H-Pro-Phe-Arg-AMC. It counts as biochemical. The protocol:
To determine the plasma kallikrein inhibition of the substances according to the invention, a biochemical test system is used which utilizes the reaction of a peptidic plasma kallikrein substrate to determine the enzymatic activity of human plasma kallikrein. Here, plasma kallikrein cleaves from the peptidic plasma kallikrein substrate the C-terminal aminomethylcoumarin (AMC), the fluorescence of which is measured. The determinations are carried out in microtitre plates.
as §1, with “[…];” for “μM;”, “μM” for “µM”, “the” for “the factor XIa”, “H-Pro-Phe-Arg-AMC” for “Boc-Glu(OBzl)-Ala-Arg-AMC”

Chain of human factor XIa (P03951 388-625): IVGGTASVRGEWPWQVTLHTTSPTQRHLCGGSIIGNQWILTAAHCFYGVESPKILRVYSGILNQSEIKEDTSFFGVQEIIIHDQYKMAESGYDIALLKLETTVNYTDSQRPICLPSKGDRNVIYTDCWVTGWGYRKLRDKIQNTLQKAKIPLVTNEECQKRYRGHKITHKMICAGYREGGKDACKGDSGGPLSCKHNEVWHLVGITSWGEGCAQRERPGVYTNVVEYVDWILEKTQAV
Chain of human factor XIa (P03951 19-387 partner): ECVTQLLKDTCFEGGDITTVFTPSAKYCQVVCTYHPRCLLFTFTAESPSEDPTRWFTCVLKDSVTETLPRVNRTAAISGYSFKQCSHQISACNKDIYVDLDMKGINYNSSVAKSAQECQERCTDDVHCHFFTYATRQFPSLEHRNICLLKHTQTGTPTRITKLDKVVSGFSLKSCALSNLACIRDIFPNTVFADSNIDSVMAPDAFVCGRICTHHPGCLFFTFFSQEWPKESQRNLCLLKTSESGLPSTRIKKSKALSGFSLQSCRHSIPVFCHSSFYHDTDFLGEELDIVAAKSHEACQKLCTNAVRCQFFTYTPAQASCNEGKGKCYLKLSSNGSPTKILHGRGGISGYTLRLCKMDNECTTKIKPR
Chain of human plasma kallikrein (P03952 391-638): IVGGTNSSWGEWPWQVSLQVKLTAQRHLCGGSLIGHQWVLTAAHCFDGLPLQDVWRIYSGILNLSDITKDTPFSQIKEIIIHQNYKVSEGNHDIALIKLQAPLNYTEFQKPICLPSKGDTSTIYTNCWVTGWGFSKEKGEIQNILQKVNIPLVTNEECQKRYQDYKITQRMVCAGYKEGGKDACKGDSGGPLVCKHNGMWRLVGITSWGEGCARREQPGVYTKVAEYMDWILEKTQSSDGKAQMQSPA
Chain of human plasma kallikrein (P03952 20-390 partner): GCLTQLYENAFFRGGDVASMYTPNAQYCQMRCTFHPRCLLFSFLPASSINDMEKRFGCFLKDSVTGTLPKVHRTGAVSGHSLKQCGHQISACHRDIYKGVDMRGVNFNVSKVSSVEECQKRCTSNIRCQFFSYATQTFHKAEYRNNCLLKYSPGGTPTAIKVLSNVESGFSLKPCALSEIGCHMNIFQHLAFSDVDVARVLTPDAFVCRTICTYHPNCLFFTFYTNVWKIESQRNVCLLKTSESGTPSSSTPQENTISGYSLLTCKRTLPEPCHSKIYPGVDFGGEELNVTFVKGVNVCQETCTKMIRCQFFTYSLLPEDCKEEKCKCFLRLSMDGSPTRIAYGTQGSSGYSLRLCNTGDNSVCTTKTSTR

In general, IC50 refers to the concentration at which inhibition is half-maximal. Low values mean higher potency, high ones lower potency. For the molecule `COc1cn([C@@H](C)C(=O)Nc2ccc(C(N)=O)c(F)c2)c(=O)cc1-c1c(-n2cc(C(F)(F)F)nn2)ccc(Cl)c1F` [Example 2.4, 4-({(2S)-2-[4-{3-Chloro-2-fluoro-6-[4-(trifluoromethyl)-1H-1,2,3-triazol-1-yl]phenyl}-5-methoxy-2-oxopyridin-1(2H)-yl]propanoyl}amino)-2-fluorobenzamide], the IC50 was determined as 1.2 nM on human factor XIa and 3.4 nM against human plasma kallikrein.
